# Assay results reported in paper PMC6330446, “An integrated characterization of contractile, electrophysiological, and structural cardiotoxicity of Sophora tonkinensis Gapnep. in human pluripotent stem cell-derived cardiomyocytes” (Stem Cell Research & Therapy, 2019).
# Entries after “also recorded” stand apart in the source; their conditions may differ.
# Tests used:
# hiPSC-CMs [1] = conditions: hiPSC-CMs; alkaloids 2, 10, 50 μM, aconitine 1 μM; 24 h
# Protocol: (§1) After plating for about 3 days, CMs matured and began to beat. At this time, different compounds were added, and experiments were performed 24 h after treatment. The experiments were grouped as follows: control group (normal medium); matrine, oxymatrine, sophocarpine, and cytisine treatment (2, 10, 50 μM) groups; and aconitine treatment (1 μM) group. The doses of toxicity studies above were determined by the effective therapeutic doses reported and included or exceeded the therapeutic dose.
# CMs were incubated in 10% CCK-8 (Dojindo, Kumamoto, Japan) that was diluted in normal culture medium at 37 °C until a visual color conversion occurred. The absorbance of each well was measured using a microplate reader (Spectrafluor, TECAN, Sunrise, Austria) at 450 nm. Three individual experiments were performed. All samples were operated in duplicate.
# A 96-well plate was used to seed hiPSC-CMs at a concentration of 5 × 10^4 cells per well. The cultured cells were treated with different concentrations of compounds and were incubated for another 48 h. CMs were digested with trypsin, and a small amount of cell suspension was added into the same amount of trypan blue solution. Countstar Automated Cell Counter IC1000 (Elite Life Sciences, Shanghai, China) was used to count the number of total and living cells. Data were presented as the mean ± SEM, n ≥ 3.
# hiPSC-CMs [2] = conditions: hiPSC-CMs; alkaloids 2, 10, 50 μM, aconitine 1 μM
# Protocol: as §1
# Cell treatment method was the same as above. After reaching the predetermined time, 120 μl of the supernatant of each well was taken for measuring LDH leakage using a commercially available kit (Beyotime Biotechnology, Shanghai, China) following the manufacturer’s instructions. Data were presented as the mean ± SEM, n ≥ 3.
# hiPSC-CMs [3] = type: cell-based, human; conditions: hiPSC-CMs; high dose of alkaloids (50 μM), aconitine 1 μM
# Protocol: Cells were incubated in a maintaining medium containing 10 μM DCFH-DA (Beyotime Biotechnology, Shanghai, China) for 30 min at 37 °C in the dark. The measurement of ROS was performed with IncuCyte™ S3 ZOOM cell imaging system (Essen BioScience, Ann Arbor, MI). TissueQuest 6.0 was used for the quantitative analysis of ROS formation. Data were presented as the mean ± SEM, n ≥ 3.
# GCaMP hESC-CMs = type: cell-based, human; conditions: GCaMP hESC-CMs; high dose of alkaloids (50 μM), aconitine 1 μM
# Protocol: The hESC-CMs in this experiment can express the GCaMP reporter gene by gene editing, and green fluorescence marker can be observed by a fluorescence microscope. The fluorescence intensity is proportional to Ca^2+ concentration. The CMs were seeded into 96-well plates at 5000/well and were administered the same as above. The fluorescence intensities of hESC-CMs were monitored using an IncuCyte™ S3 ZOOM cell imaging system (Essen BioScience, Ann Arbor, MI). Data were presented as the mean ± SEM, n ≥ 3.
# hiPSC-CMs [4] = test: TUNEL staining (apoptosis); type: cell-based, human; conditions: high dose of alkaloids, aconitine
# Protocol: Supplementary file 13287_2018_1126_MOESM1_ESM.tif: Additional file 1: Figure S1. Effect of matrine, oxymatrine, cytisine, and sophocarpine on TUNEL staining in hiPSC-CMs. After treatment with matrine, oxymatrine, cytisine, and sophocarpine, the images of TUNEL fluorescence and bright field were acquired intuitively using IncuCyte™ S3 ZOOM cell imaging system and the fluorescence intensity was analyzed quantitatively using TissueQuest 6.0. […] The scale bar is 400 μm. Data are presented as the mean ± SEM, n ≥ 3. […] vs the control group. (TIF 23588 kb)
# hiPSC-CMs [5] = test: CK-MB and cardiac troponin I ELISA assay; type: cell-based, human; conditions: alkaloids 2, 10, 50 μM, aconitine 1 μM
# Protocol: as §1
# Cell treatment method was the same as above. After the administration, the cells were digested and then destroyed by repeated freeze-thaw and sonication to release the components in the cells. Centrifuged at 2500 rpm for 20 min, the supernatant was collected for the detection of creatine kinase MB isoenzyme (CK-MB) and cardiac troponin I (CTn-I) ELISA kit (Expandbiotech, Beijing, China) following the manufacturer’s instructions. Data were presented as the mean ± SEM, n ≥ 3.
compound,measurement,setting,value
"CCN1C[C@]2(COC)[C@H](O)C[C@H](OC)[C@@]34[C@@H]5C[C@@]6(O)[C@H](OC(=O)c7ccccc7)[C@@H]5[C@@](OC(C)=O)([C@@H]([C@H](OC)[C@H]23)[C@@H]14)[C@@H](O)[C@@H]6OC [aconitine, reference compound]",Cell viability (in words),hiPSC-CMs [1],showed a great significance
same,LDH level in the supernatant (in words),hiPSC-CMs [2],induced a large amount; also recorded: increased immensely
same,ROS fluorescence / ROS production (in words),hiPSC-CMs [3],induced excessive ROS production
same,"Fluorescence intensity of calcium, [Ca^2+]i (in words)",GCaMP hESC-CMs,increased drastically
same,TUNEL fluorescence staining (in words),hiPSC-CMs [4],huge increase
same,CK-MB level (in words),hiPSC-CMs [5],induced a large amount; also recorded: increased immensely
same,CTnI level (in words),hiPSC-CMs [5],induced a large amount
